The structures appear in SMILES notation.

The melting point is the temperature of the solid-liquid transition.

In the case of `C[Si](C)(CC(CN)CC(=O)O)C1CC1` (stereo not shown), the melting point was in the range of 151.5 to 153 °C.

The record behind these values is US9353134B2, “Silicon-containing carboxylic acid derivative” (KEMPHYS LTD., priority 2012, dated 2016).
